The nature of the series: gradient 5% acetonitrile 3 min, to 50% in 2 min, to 85% in 15 min, held 3 min, 100 µL/min. As to conditions: column: Zorbax Extend-C18 2.1 x 50 mm; eluents: water / acetonitrile, 0.1% formic acid. The method in brief:
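Pure standards were analyzed in mixtures of ~100 molecules using HPLC coupled to a quadrupole time-of-flight mass spectrometer, in both positive and negative ionization mode. Separation used a Zorbax Extend-C18 column (2.1 × 50 mm, 1.8 μm) at 100 μL/min, with water and acetonitrile each containing 0.1% formic acid. Dead and dwell volumes were 40 μL and 900 μL, and data were collected over 3 months. Retention time was read from computationally picked adduct peaks, each inspected manually.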
`O=C(Nc1nc2c(s1)CN(C(=O)c1cnn(-c3ccccc3)n1)CC2)C1CCCO1` (stereo not drawn) came in with an RP-LC retention time of 762 s. Under `CC(C)c1c(C2CCN(C(=O)NCc3ccccc3)CC2)noc1N` stands 741 s; under `CCc1cc2c(cc(C(=O)NCc3ccccc3)n2C)s1`, 1060 s. Under `Cc1ccc(Cl)cc1N1CCN(c2cc(C(=O)O)c3cc(NC(=O)C(C)C)ccc3n2)CC1` stands 746 s; under `CC(C)CCSc1nnc2c(S(=O)(=O)N3CCN(c4ccc(F)cc4)CC3)cccn12`, 1060 s. Under `Cc1ccsc1C(=O)N1CCC(c2nc(CCOCC3CC3)no2)C1` (stereo not drawn) stands 812 s; under `CCN(CC)c1nc2ccsc2c(=O)n1CCC(=O)NCc1ccc(F)cc1F`, 848 s; under `COc1ccc(OC)c(NS(=O)(=O)c2ccc(-c3nnc(C4CCC4)o3)o2)c1`, 893 s. `Cc1ccc(CNC(=O)c2ccc(NC(=O)C3CC3)cc2N2CCOCC2)o1`: the RP-LC retention time is 768 s. Regarding `COC(=O)c1cc(OCC(=O)Nc2cc(Cl)ccc2OC)c2cc(OC)ccc2n1`, the RP-LC retention time amounted to 970 s. The compound `N#CCCSc1ccccc1NC(=O)c1ccc(C(=O)c2ccccc2)cc1` gave an RP-LC retention time of 924 s. As to `COc1ccc(Cl)cc1NC(=O)CSc1ccc2nnc(-c3cccc(F)c3)n2n1`, the RP-LC retention time came to 802 s. On to `CC(C)(C)CC(=O)NCCn1c(=O)n(Cc2ccccc2)c2cccnc21`, for which the RP-LC retention time amounted to 786 s.

`Cc1ccccc1CNC(=O)c1ccc(CN2CCN(Cc3ccccc3)C(=O)C2=O)cc1` returned an RP-LC retention time of 797 s. For `CN(Cc1ccccc1)C(=O)C1CCN(S(=O)(=O)c2ccc(-c3noc(C4CC4)n3)cc2)CC1`, the RP-LC retention time was found to be 1100 s. Under `COc1ccc(NC(=O)NCC(c2cccnc2)c2cn(C)c3ccccc23)cc1` (stereo not drawn) stands 678 s. `O=S(=O)(NCc1ccc(F)cc1Cl)c1c[nH]c2ncccc12` returned an RP-LC retention time of 748 s. Take `O=C(NCCCN1CCOCC1)C1CCc2sc(C(=O)N3CCCCCC3)cc2C1` (stereo not drawn): the RP-LC retention time worked out at 560 s.

In turn, `CCC(=O)Nc1ccc(-n2cnc(C(=O)NCc3ccc(F)c(Cl)c3)c2)nc1` showed an RP-LC retention time of 760 s. Under `CCC1CN(C(=O)N2CCC(C(=O)NCCc3ccco3)CC2)c2ccccc2O1` (stereo not drawn) stands 852 s; under `O=C(Nc1nccs1)C1CC(=O)N(c2n[nH]c3cccc(F)c23)C1` (stereo not drawn), 650 s.

With `O=C(CN1C(=O)c2ccccc2C1=O)Nc1nnc(-c2ccc3c(c2)OCCO3)o1`, the RP-LC retention time was 678 s. The result for `CCOc1ccc2nc(N3CCCC(C(=O)NCCCN4CCOCC4)C3)sc2c1` (stereo not drawn) reads 632 s. `Cc1ccn2c(NC(=O)CCc3ccccc3)c(-c3ccc(F)cc3)nc2c1` gave an RP-LC retention time of 703 s. Under `O=C(CCNS(=O)(=O)c1ccc(Cl)cc1)N1CCN(c2ccccn2)CC1` stands 609 s; under `CCc1ccc(NC(=O)N2CCC(n3cnc4c(Cl)cccc4c3=O)CC2)cc1`, 890 s; under `O=C(NCc1ccc2c(c1)OCO2)c1n[nH]nc1Nc1ccc(F)cc1`, 872 s. `Cc1ccc(NS(=O)(=O)c2ccc(-c3nnc(C4CCC4)o3)o2)c(C)c1` registered an RP-LC retention time of 977 s. Take `CS(=O)(=O)N1CCC(OC2CCN(C(=O)Nc3ccc(F)cc3F)CC2)CC1`: the RP-LC retention time was 720 s. The result for `CCc1nc(OCC(=O)NCc2ccc(F)cc2)c2ccccc2n1` reads 753 s; that for `CCOc1ccc(-n2nc(-c3nc(-c4ccc5c(c4)OCO5)no3)c3ccccc3c2=O)cc1`, 1290 s. The result for `COc1ccc(N2CC(c3noc(-c4ccc(OC(F)(F)F)cc4)n3)CC2=O)cc1` (stereo not drawn) reads 1070 s; that for `CC(C)(C)CC(C)(C)NC(=O)C1CCN(C(=O)c2ccccc2F)CC1`, 920 s. In the case of `COc1ccc(CCC(=O)c2c(O)cc(O[C@@H]3O[C@H](CO)[C@@H](O)[C@H](O)[C@H]3O[C@@H]3O[C@@H](C)[C@H](O)[C@@H](O)[C@H]3O)cc2O)cc1O`, the RP-LC retention time was 654 s. The result for `O=S1(=O)C[C@H](N2CCN(c3ccccc3F)CC2)[C@@H](S(=O)(=O)c2ccc(Cl)cc2)C1` reads 986 s. `O=C(NCc1ccncc1)C1CC(=O)N(c2ccc3c(c2)CCN3C(=O)C2CC2)C1` (stereo not drawn) gave an RP-LC retention time of 573 s. Take `CCOc1ccccc1NC(=O)N1CCc2cn(C)c3cccc(c23)C1`: the RP-LC retention time is 834 s.

The compound `O=C(O)c1nc(N2CCCC2)c2oc3ccccc3c2n1` came in with an RP-LC retention time of 617 s. Under `O=C(NC1CCCCC1)c1nc(-c2cn(-c3ccc(F)cc3)nn2)no1` stands 938 s; under `CCN1CCCC1CNC(=O)C(C)n1c2ccccc2c2cnn(C)c(=O)c21` (stereo not drawn), 615 s.

`Cc1cc(N(C)C)n2nc(CN(C)Cc3ccccc3)nc2n1` registered an RP-LC retention time of 577 s. Consider `CCC(C(=O)Nc1ccc(C(C)=O)cc1)n1cnc2nc3c(cc2c1=O)CCCC3` (stereo not drawn), for which the RP-LC retention time was determined as 748 s. The result for `CCN(CC)C(=O)c1c2c(cn(-c3ccc(C)cc3)c1=O)C(=O)CC(C)(C)C2` reads 799 s; that for `CC(C(=O)NCCCN(C)c1ccccc1)n1c(=O)c(C(F)(F)F)nc2ccccc21` (stereo not drawn), 881 s. The result for `O=C(Cn1nc2n(c1=O)CCCCC2)Nc1ccc(Cl)cc1` reads 730 s. In turn, `CCCCc1ccc(NC(=O)N2CC(c3nc(C)no3)C3(CCOCC3)C2)cc1` (stereo not drawn) gave an RP-LC retention time of 914 s.

`CC(C)n1c(-c2cccc(C(=O)NCc3ccco3)c2)nc2cccnc21`: the RP-LC retention time came out at 751 s. In the case of `CCCS(=O)(=O)NCc1ccc2c(c1)CCN2C(=O)c1cccc(C)c1`, the RP-LC retention time is 899 s. Under `CCOC(=O)c1noc2ncnc(NCc3ccc(OC)cc3)c12` stands 938 s. The result for `Cc1ccc(-c2noc(Cn3ccn(-c4ccccc4)c(=O)c3=O)n2)cc1` reads 844 s; that for `CCNC(=O)C1Cc2cc(C(F)(F)F)ccc2N2CCN(Cc3ccc(F)cc3)CC12` (stereo not drawn), 610 s; that for `CCOc1ccc(-c2cc3c(=O)n(Cc4nc(-c5cccc(Br)c5)no4)ccn3n2)cc1`, 1200 s. In the case of `CCC(C)C(NC(=O)c1cc(OC)cc(OC)c1)C(=O)Nc1nc2ccccc2[nH]1` (stereo not drawn), the RP-LC retention time is 769 s. Under `O=C(Cc1cccs1)Nc1nnc(SCc2ccc([N+](=O)[O-])cc2)s1` stands 861 s. `CCn1cc(S(=O)(=O)N2CC(n3cc(C(=O)N4CCOCC4)nn3)C2)cn1`: the RP-LC retention time was determined as 632 s. Regarding `CCOCC(=O)Nc1cccc(OCc2nnc(-c3ccc(OC)cc3)o2)c1`, the RP-LC retention time was found to be 830 s. The result for `O=C(Nc1ccccc1Cl)NC1CCCN(c2cc(-c3ccncc3)[nH]n2)C1` (stereo not drawn) reads 582 s; that for `COc1cccc(-c2nc(-c3ccc4ncn(C(C)C)c4c3)no2)c1OC`, 766 s; that for `Cn1c(=O)c2c(ncn2CC(=O)N2CCCn3nc(-c4ccccc4)cc3C2)n(C)c1=O`, 647 s. Under `Cc1oc(-c2ccccc2)nc1Cc1noc(-c2cccc(F)c2)n1` stands 1160 s; under `CCc1ccccc1NC(=O)Cn1c(N2CCCC2)nc(C)cc1=O`, 659 s. Regarding `Cc1ccc(NC(=O)c2cccc3c2SCCC3=O)nc1`, the RP-LC retention time was 726 s. Consider `Cn1nc(C(=O)Nc2ccccc2)c2c1CCN(C(=O)NCC1CCCO1)C2` (stereo not drawn), for which the RP-LC retention time amounted to 702 s.

With `O=C(NCCOC(=O)c1ccco1)C(=O)Nc1nc(-c2ccccc2)cs1`, the RP-LC retention time came out at 887 s.

For the compound `O=C(NCCCn1c(-c2ccncc2)nc2cccnc21)NCc1ccc(F)cc1`, the RP-LC retention time was 627 s. Under `Cc1nnc(N2CCCC(C(=O)NCc3ccc4c(c3)OCO4)C2)c2nn(-c3ccccc3)c(C)c12` (stereo not drawn) stands 698 s; under `CCCCN(CC)C(=O)c1cc2c(=O)oc3ccccc3c2n1C`, 910 s; under `COC(=O)c1cnn(-c2cccc(C)c2)c1-n1cccc1`, 964 s.

Consider `CSc1ccc(-c2nc3cnccn3c2Nc2ccc(C(=O)NCc3ccco3)cc2)cc1`, for which the RP-LC retention time was 778 s.

The compound `Cc1cc(Cl)ccc1NC(=O)C1CCN(S(=O)(=O)c2c(C)nn(-c3ccccc3)c2C)CC1` came in with an RP-LC retention time of 1020 s. `CCN1CCN(CCCNC(=O)Cc2c(C(=O)O)c(C)cn2C)CC1`: the RP-LC retention time was found to be 549 s.

Compound `CCCCOC(=O)c1ccc(NC(=O)c2cccn(Cc3cccc([N+](=O)[O-])c3)c2=O)cc1` yielded an RP-LC retention time of 1140 s.

`Cc1ccsc1C(=O)Nc1nnc(SCc2nnc(-c3ccc4c(c3)OCO4)o2)s1` showed an RP-LC retention time of 884 s. For the compound `Nc1nc2ccc([N+](=O)[O-])cc2[nH]1`, the RP-LC retention time is 610 s. The result for `Cc1ccccc1CNC(=O)C(=O)NCC(c1ccc2c(c1)OCO2)N1CCOCC1` (stereo not drawn) reads 668 s. As for `CC1CCNC2C1NC(=O)C1CCCNC1N2C1CC1` (stereo not drawn), the RP-LC retention time was 679 s. The compound `Cn1cnc(S(=O)(=O)N2CCC(C(=O)Nc3cccc(C#N)c3)CC2)c1` displayed an RP-LC retention time of 674 s. Under `O=C(Nc1ccc2c(c1)OCCO2)C1CC(=O)N(CCc2c[nH]c3ccc(Cl)cc23)C1` (stereo not drawn) stands 827 s.

The values above are taken from the METLIN SMRT retention time set (Domingo-Almenara et al. 2019).
